# Reference: patent US8241607B2, “Use of fructose-based compounds for the diagnosis of cancer” (priority 2005, dated 2012)
# Columns and labels:
# Assay type in all cases: cell-based
# MAPK pathway = assay: Western blot of MAPK pathway in breast cancer cells
# Experimental: FIG. 11 depicts increased breast cancer phosphorylated-MEK, phosphorylated Rsk, and phosphorylated CREB in accordance with an embodiment of the present invention. MCF-7 breast cancer cells were incubated in 2 mM glucose, 5 mM glucose or 5 mM fructose for 24 hours, after which Western blot analysis on total protein lysates was employed to examine components of the MAP kinase pathway. […] Total MEK, Rsk, and CREB levels, and β-actin served as loading controls.
# (§1) Although several signal transduction pathways are likely involved in the fructose-mediated enhanced breast cancer growth and while not wishing to be bound by any particular theory, the inventors believe that the MAP-kinase pathway is involved. The inventors have used Western blot analysis to examine the MAPK pathway in breast cancer cells incubated in 2 mM glucose, 5.5 mM glucose, and 5.5 mM fructose for 48 hours. […] Activation of MEK, and subsequently ERK results in phosphorylation of p90^Rsk, which leads to transcriptional activation of CREB and AP1, which bind to cAMP or AP1 response elements respectively, activating gene transcription and promoting cellular growth.
# AP1 = assay: ELISA-based transbinding AP1 assay in MCF-7 cells; details: 5.5 mM sugar, 24 h
# Experimental: FIG. 12 depicts an increase in AP1 activation in fructose-treated cells in accordance with an embodiment of the present invention. MCF-7 breast cancer cells were incubated in 2 mM glucose, or 5 mM glucose or fructose for 24 h, after which nuclear extracts were incubated with a biotinylated AP-1 probe in binding buffer. AP-1/AP1 probe complexes were next conjugated to a streptavidin-coated assay plate and detected using an AP-1 specific antibody, followed by binding of a horseradish-peroxidase conjugated secondary antibody, and detection by a colorimetric reagent. *, p<0.001.
# as §1
# PANC-1 cells = assay: PANC-1 proliferation in fructose versus glucose (MTS assay)
# Experimental: FIG. 13 depicts higher proliferation rates in pancreatic cancer cells in fructose (5.5 mM) than glucose (5.5 mM) containing medium in accordance with an embodiment of the present invention. PANC-1 cells were pre-incubated in 2 mM glucose, after which they were plated in 5.5 mM fructose or glucose for times between 12-72 h, after which proliferative rates were measured using an MTS assay. Proliferative rates are expressed as the percentage difference between cells grown in 5.5 mM fructose versus 5.5 mM glucose. p<0.01 for times >48 h.
# FIG. 14 depicts proliferation rates of pancreatic cells in different fructose or glucose concentrations in accordance with an embodiment of the present invention. PANC-1 cells were plated in a range of fructose or glucose concentrations (5-25 mM) for 72 h, after which proliferative rates were measured using an MTS assay. *, p<0.05 for concentrations between 5-25 mM fructose versus glucose.
# FIG. 17 depicts cell proliferation regardless of co-existent glucose concentration in accordance with an embodiment of the present invention. PANC-1 cells were pre-incubated in 2 mM glucose prior to treatment with a range of concentrations (0-15 mM) mixed with a range of fructose concentrations (0-15 mM) for 72 h. PANC-1 cell proliferative rates were then measured using the MTS assay (absorbance in arbitrary units).
# Standard media for maintenance cancer cell line culture, including pancreatic cancer cells such as PANC-1 cells contain either low- (5-7 mM), or high- (12-25 mM) glucose concentrations. […] Proliferative rates were then measured in replicate (minimum of 6) aliquot wells of the pancreatic cancer cells, and the change (expressed as percent increase) in proliferative rates compared between cells grown in glucose, or fructose containing medium.
# This first result intrigued the inventors, but given there is little documentation regarding physiological fructose concentrations, the inventors first considered that the “apparent” pro-proliferative effects of fructose were simply a consequence of the highly stylized in vitro experimental conditions, and that if the pancreatic cancer cells were cultured in higher glucose concentrations, this would result in similar proliferative rates to those the inventors observed following culture in 5.5 mM fructose. […] MTS assay was employed to measure pancreatic cancer cell proliferative rates, which utilizes mitochondrial oxidation to quantify cell proliferation. As the inventors were examining carbohydrate-mediated effects, the inventors considered the change observed in proliferative rates, as measured by this assay, simply reflected changes in mitochondrial oxidation. […]
# GLUT-5 mRNA = assay: Real-time RT-PCR of GLUT-5 mRNA in PANC-1 cells; details: 5.5 mM fructose, 24 h
# Experimental: FIG. 22 depicts […] mRNA levels in pancreatic cancer cells in accordance with an embodiment of the present invention. Quantitative real-time RT-PCR was used to measure GLUT-5 mRNA levels in pancreatic cancer cells (PANC-1), following culture in 2 mM glucose, 5.5 mM glucose, or 5.5 mM fructose for 4 h and 24 h.
# Brit J Biomed Sci 56(4): 285-292, 1999; Rogers S, Docherty S E, Slavin J L, Henderson and Best J D. Differential expression of GLUT12 in breast cancer and normal breast tissue. Cancer Letters 193(2): 225-233, 2003). […] Real-time RT-PCR was used to measure GLUT-5 mRNA expression following 2 mM, and 5.5 mM glucose-, and 5.5 mM fructose-treatment for 4 h, and 24 h respectively. GLUT-5 mRNA was expressed as the fold-change relative to GLUT-5 mRNA levels in 2 mM glucose-treated cells. As depicted in FIG. 22, at 4 h, GLUT-5 mRNA levels were low in both the 5.5 mM glucose-, and fructose-treated PANC-1 cells. […] This agrees with other studies which have reported fructose-induced GLUT-5 mRNA expression in colon cancer (74).
# [1] = breast cancer cells, 5.5 mM fructose, 24 h, vs 5.5 and 2 mM glucose
smiles,measurement,setting,value
O=C(CO)[C@@H](O)[C@H](O)[C@H](O)CO [fructose],phospho-MEK (pMEK) expression,"MAPK pathway; MCF-7 and MDA-MB231, 5.5 mM fructose vs 5.5 and 2 mM glucose",increased expression
same,phospho-CREB (pCREB),MAPK pathway; [1],increased
same,phospho-Rsk (pRsk),MAPK pathway; [1],increased
same,increase in AP1 activation,AP1,3 fold
same,proliferative rates,"PANC-1 cells; 5 mM fructose vs 5-fold higher glucose (25 mM), 72 h",higher proliferative rates
same,"higher proliferative rate, fructose vs glucose","PANC-1 cells; 5.5 mM fructose vs 5.5 mM glucose, 72 h (maximal)",23%
same,fructose concentration giving increase in cell proliferation regardless of co-existent glucose,"PANC-1 cells; 72 h, glucose 0-15 mM admixed with fructose 0-15 mM",≥ 6 mM
same,fructose concentration at which increased proliferation was first demonstrable,"PANC-1 cells; 72 h, range 2-25 mM",around 5 mM
same,GLUT-5 mRNA levels relative to 2 mM glucose-treated cells,GLUT-5 mRNA,1.5 fold higher
same,GLUT-5 mRNA levels relative to 5.5 mM glucose-treated cells,GLUT-5 mRNA,1.75 fold higher
